Test results taken from patent publication US5216005A, “Immunosuppressive analogues and derivatives of succinylacetone” (priority 1990, dated 1993).
Like-named read-outs stand apart in the source and are kept apart here.

Columns and labels:
human lymphoid cells = experiment: tritiated thymidine uptake in secondary mixed lymphocyte reaction; type: cell-based; conditions: 2°-MLR; for inhibition at 740 µM / inhibition at 2200 µM / inhibition at 6700 µM / inhibition at 20000 µM: Homo sapiens, Lymphocyte
Procedure: In addition to testing the immunosuppressive activities of succinylacetone derivatives in a primary mixed lymphocyte reaction, or a phytohemagglutinin stimulation assay, two of the derivatives, succinylacetone methyl ester and methyl 4-acetyl-5-oxohexanoate, were tested in a secondary mixed lymphocyte reaction assay. The secondary mixed lymphocyte assays differs from the primary mixed lymphocyte reaction assays in that they employ many more primed responder cells that are responsive to the primary stimulating cells. The presence of such responsive cells is a reflection of immunological memory in an ongoing immunological response. […] These cells are then used in the secondary mixed lymphocyte reaction. It is worth noting that because a secondary mixed lymphocyte reaction is greatly enriched for responsive cells, fewer cells can be used in the secondary assay.
It will be appreciated that described therein is a method for carrying out secondary lymphocyte reactions using mouse cells, however such methods are generally applicable to performing secondary mixed lymphocyte reactions using human cells with modifications that are well known to those skilled in the art. […] The assays were conducted in duplicate involving lymphoid cells isolated from two individuals.

[1] = tested on: IL-2 (human lymphoid cells); experiment: IL-2 production in primary mixed lymphocyte reaction (HT-2 cell assay); type: cell-based; set-up: IL-2: unit not given here; conditions: for IL-2: 1° MLR
Procedure: Derivatives of succinylacetone were tested for immunosuppressive activity in several different types of assay systems. The first consisted of measuring the amounts of interleukin-2 (IL-2), and interferon-γ (IFN-γ) produced by human lymphoid cells in a mixed lymphocyte reaction. Low levels of these molecules in the reaction mixture indicate that the immune system is being suppressed by the subject succinylacetone derivatives. IL-2 was measured by enumerating the number of viable HT-2 cells found after an 18-24 hours period. HT-2 cells are a mouse IL-2 dependent cell line which die in the absence of IL-2. The assay is described by Gillis et al., J. of Immunol. […] The mixed lymphocyte reaction assay can be carried out by techniques well known to those skilled in the art. L. Hudson and F. C. Huy, Practical Immunology, p. […] Briefly this consists of isolating lymphocytes from human peripheral blood by standard density gradient centrifugation techniques from two separate individuals. Approximately 2×10^5 lymphocytes of each individual are combined to yield a total of 4×10^5 lymphocytes per culture. All procedures are carried out under sterile conditions, and the lymphocytes are isolated and kept in physiologically compatible solutions. To the mixture of lymphocytes is added a desired amount of an appropriate succinylacetone derivative, and after different times an aliquot of the mixture is removed and assayed for IL-2 or IFN-γ, or ^[…] is measured.

human lymphocytes = experiment: phytohemagglutinin (PHA) stimulation assay, tritiated thymidine uptake; type: cell-based; conditions: for IC50: Homo sapiens, Lymphocyte, read-out: concentration causing 50% inhibition of PHA stimulation
Procedure: A second assay widely used to study immune responsiveness is mitogenic stimulation of thymocytes with antigenic substances of plant origin. The most widely used plant molecule is phytohemagglutinin (PHA).
The procedure for carrying out the phytohaemagglutinin assay is also well known to those skilled in the art. Briefly, it consists of isolating human lymphocytes as described above, and incubating about 1.0×10^6 cells per ml in a suitable physiological solution with phytohaemagglutinin, and the appropriate concentration of succinylacetone-proline-NH-PEG. Tritiated thymidine is added 48 hours later and allowed to incubate for twenty-four hours before the cells are counted.

[2] = tested on: adjuvant induced arthritis; experiment: adjuvant induced arthritis in rats, overall arthritis score; intraarticular right paw, per kg: succinylacetone 325 μg, methyl ester 150 μg, 4-acetyl-5-oxohexanoate 560 μg; type: in vivo, rat

## COC(=O)CCC(=O)CC(C)=O [Succinylacetone Methyl Ester, methyl 4-6-dioxoheptanoate]
Human lymphoid cells; Exp I, 247 μM
  CPM: 87337 CPM
Human lymphoid cells; Exp I, 740 μM
  CPM: 67456 CPM
  inhibition at 740 µM: 16.3%
Human lymphoid cells; Exp I, 2.2 mM
  CPM: 11778 CPM
  inhibition at 2200 µM: 85.4%
Human lymphoid cells; Exp I, 6.7 mM
  CPM: 51 CPM
  inhibition at 6700 µM: 9.99%
Human lymphoid cells; Exp I, 20 mM
  CPM: 64 CPM
  inhibition at 20000 µM: 99.9%
Human lymphoid cells; Exp II, 247 μM
  CPM: 125345 CPM
Human lymphoid cells; Exp II, 740 μM
  CPM: 85447 CPM
  inhibition at 740 µM: 8.5%
Human lymphoid cells; Exp II, 2.2 mM
  CPM: 29851 CPM
  inhibition at 2200 µM: 68%
Human lymphoid cells; Exp II, 6.7 mM
  CPM: 62 CPM
  inhibition at 6700 µM: 9.99%
Human lymphoid cells; Exp II, 20 mM
  CPM: 87 CPM
  inhibition at 20000 µM: 99.9%
[1]; Exp I, 3 μM
  IL-2: 41
[1]; Exp I, 9 μM
  IL-2: 28
[1]; Exp I, 27 μM
  IL-2: 25
[1]; Exp I, 81 μM
  IL-2: 24
[1]; Exp I, 244 μM
  IL-2: 19
[1]; Exp I, 733 μM
  IL-2: 14
[1]; Exp I, 2.2 mM
  IL-2: < 6
[1]; Exp I, 6.7 mM
  IL-2: < 6
[1]; Exp I, 20 mM
  IL-2: < 6
[1]; Exp II, 3 μM
  IL-2: 34
[1]; Exp II, 9 μM
  IL-2: 38
[1]; Exp II, 27 μM
  IL-2: 34
[1]; Exp II, 81 μM
  IL-2: 28
[1]; Exp II, 244 μM
  IL-2: 28
[1]; Exp II, 733 μM
  IL-2: 23
[1]; Exp II, 2.2 mM
  IL-2: < 8
[1]; Exp II, 6.7 mM
  IL-2: < 8
[1]; Exp II, 20 mM
  IL-2: < 8
[1]; Homo sapiens, HT2, read-out: concentration that inhibits IL-2 production by about 50%
  IC50: ~733 µM
Human lymphocytes; one assay
  IC50: 103 to 309 µM
Human lymphocytes; second assay
  IC50: ~103 µM
Human lymphocytes; first experiment, 3.8 μM
  PHA stimulation, cpm ± SD: 20292 cpm
Human lymphocytes; first experiment, 11 μM
  PHA stimulation, cpm ± SD: 18100 cpm
Human lymphocytes; first experiment, 34 μM
  PHA stimulation, cpm ± SD: 16549 cpm
Human lymphocytes; first experiment, 103 μM
  PHA stimulation, cpm ± SD: 17595 cpm
Human lymphocytes; first experiment, 309 μM
  PHA stimulation, cpm ± SD: 5927 cpm
Human lymphocytes; first experiment, 962 μM
  PHA stimulation, cpm ± SD: 565 cpm
Human lymphocytes; first experiment, 2.8 mM
  PHA stimulation, cpm ± SD: 126 cpm
Human lymphocytes; first experiment, 25 mM
  PHA stimulation, cpm ± SD: 113 cpm
Human lymphocytes; first experiment, 83 mM
  PHA stimulation, cpm ± SD: 79 cpm
Human lymphocytes; second experiment, 3.8 μM
  PHA stimulation, cpm ± SD: 37936 cpm
Human lymphocytes; second experiment, 11 μM
  PHA stimulation, cpm ± SD: 28645 cpm
Human lymphocytes; second experiment, 34 μM
  PHA stimulation, cpm ± SD: 28614 cpm
Human lymphocytes; second experiment, 103 μM
  PHA stimulation, cpm ± SD: 17733 cpm
Human lymphocytes; second experiment, 309 μM
  PHA stimulation, cpm ± SD: 5292 cpm
Human lymphocytes; second experiment, 962 μM
  PHA stimulation, cpm ± SD: 6949 cpm
Human lymphocytes; second experiment, 2.8 mM
  PHA stimulation, cpm ± SD: 65 cpm
Human lymphocytes; second experiment, 25 mM
  PHA stimulation, cpm ± SD: 112 cpm
Human lymphocytes; second experiment, 83 mM
  PHA stimulation, cpm ± SD: 107 cpm
[2]; Exp. I (treated from same day), day 14
  overall arthritis score: 2.4 ± 2.5
[2]; Exp. I (treated from same day), day 16
  overall arthritis score: 2.8 ± 2.4
[2]; Exp. I (treated from same day), day 18
  overall arthritis score: 3.4 ± 1.9
[2]; Exp. I (treated from same day), day 20
  overall arthritis score: 6.4 ± 3.6
[2]; Exp. I (treated from same day), day 22
  overall arthritis score: 6.8 ± 4.0
[2]; Exp. I (treated from same day), day 24
  overall arthritis score: 7.2 ± 4.1
[2]; Exp. I (treated from same day), day 26
  overall arthritis score: 6.2 ± 3.7
[2]; Exp. II (treated from day 4), day 14
  overall arthritis score: 1.6 ± 2.6
[2]; Exp. II (treated from day 4), day 16
  overall arthritis score: 2 ± 2.8
[2]; Exp. II (treated from day 4), day 18
  overall arthritis score: 3.2 ± 4.0
[2]; Exp. II (treated from day 4), day 20
  overall arthritis score: 4.0 ± 4.6
[2]; Exp. II (treated from day 4), day 22
  overall arthritis score: 4.8 ± 4.1
[2]; Exp. II (treated from day 4), day 24
  overall arthritis score: 4.8 ± 4.1
[2]; Exp. II (treated from day 4), day 26
  overall arthritis score: 5.6 ± 4.7
[2]; Exp. III (treated from day 14), day 14
  overall arthritis score: 1.2 ± 1.8
[2]; Exp. III (treated from day 14), day 16
  overall arthritis score: 1.4 ± 1.3
[2]; Exp. III (treated from day 14), day 18
  overall arthritis score: 1.4 ± 2.2
[2]; Exp. III (treated from day 14), day 20
  overall arthritis score: 4.8 ± 3.8
[2]; Exp. III (treated from day 14), day 22
  overall arthritis score: 4.4 ± 3.6
[2]; Exp. III (treated from day 14), day 24
  overall arthritis score: 4.4 ± 3.6
[2]; Exp. III (treated from day 14), day 26
  overall arthritis score: 3.0 ± 3.3
[2]; comparison of treatment schedules, in words
  effect on arthritis: most effective when it is administered 14 days after induction of the disease
